Key:
Assay type in all cases: biochemical
[1] = target: T1, MMP-10 (Homo sapiens, UniProt P09238); experiment: In vitro MMP-10 inhibition test
T1 construct: purchased R&D Systems 910-MP
Procedure, shortened: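 APMA-activated recombinant MMP-10 (final e.g. 2 nM) with quenched Mca-Arg-Pro-Lys-Pro-Val-Glu-Nval-Trp-Arg-Lys(Dnp)-NH2 substrate (final e.g. 10 μM) in 50 mM Tris/HCl pH 7.5, 10 mM CaCl2, 150 mM NaCl, 0.05% Brij-35. Fluorescence (ex 320/em 410 nm) followed e.g. 120 min at 32 °C. IC50 at 50% signal.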

[2] = target: T2, mouse MMP-9 (Mus musculus, UniProt P41245); experiment: In vitro mouse MMP-9 inhibition test
T2 construct: purchased R&D Systems 909-MP
Description: (§1) The MMP-mediated amidolytic cleavage of a suitable peptide substrate leads to an increase in fluorescent light here too. The signal intensity of the fluorescent light is directly proportional to the enzyme activity. The active concentration of a test compound at which half the enzyme is inhibited (50% signal intensity of the fluorescent light) is reported as the IC50 value.
(§2) Recombinant mouse MMP-9 (from R&D Systems, 909-MP) is chemically activated in accordance with the manufacturer's instructions using APMA. 1 μl of the test compound to be analysed (as a solution in DMSO, suitable concentrations, for example, 1 nM to 30 μM) is pipetted into 24 μl of activated enzyme (final concentration, for example, 0.1 nM) in reaction buffer (50 mM Tris/HCl pH 7.5, 10 mM CaCl2, 150 mM NaCl, 0.05% Brij®-35) in a white 384-hole microtiter plate (MTP). The enzymatic reaction is started by adding the intramolecularly quenched Mca-Pro-Leu-Gly-Leu-Dpa(Dnp)-Ala-Arg-NH2 substrate (final concentration, for example, 5 μM; R&D Systems, ES-001), so as to result in a total test volume of 50 The course of the MMP-9 reaction is measured by measuring the fluorescence intensity (excitation 320 nm, emission 410 nm) over a suitable period of time (for example over 120 min at a temperature of 32° C.).

[3] = target: T3, MMP-2 (Homo sapiens, UniProt P08253); experiment: In vitro MMP-2 inhibition test
T3 construct: purchased R&D Systems 902-MP
T3 sequence (P08253 110-660): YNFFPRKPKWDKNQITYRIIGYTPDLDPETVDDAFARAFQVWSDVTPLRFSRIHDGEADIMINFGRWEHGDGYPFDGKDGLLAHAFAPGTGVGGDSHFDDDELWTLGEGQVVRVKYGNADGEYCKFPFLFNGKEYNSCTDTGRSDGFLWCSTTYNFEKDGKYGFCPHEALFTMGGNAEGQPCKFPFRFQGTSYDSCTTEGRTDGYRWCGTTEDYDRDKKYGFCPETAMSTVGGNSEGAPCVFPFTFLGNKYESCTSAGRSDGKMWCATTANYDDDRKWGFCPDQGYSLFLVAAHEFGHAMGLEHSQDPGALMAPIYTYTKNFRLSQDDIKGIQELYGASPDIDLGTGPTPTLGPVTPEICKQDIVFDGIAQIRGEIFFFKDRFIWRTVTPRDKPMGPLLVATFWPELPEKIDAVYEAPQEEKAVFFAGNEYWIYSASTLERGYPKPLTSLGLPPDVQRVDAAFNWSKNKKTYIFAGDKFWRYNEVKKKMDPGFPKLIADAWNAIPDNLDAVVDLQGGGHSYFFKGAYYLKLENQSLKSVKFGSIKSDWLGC
Procedure, shortened: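 APMA-activated recombinant MMP-2 (final e.g. 2 nM) in 50 mM Tris/HCl pH 7.5, 10 mM CaCl2, 150 mM NaCl, 0.05% Brij-35, with compound in DMSO. Started with quenched Mca-PLGL-Dpa(Dnp)-AR-NH2 (e.g. 10 μM); fluorescence (ex 320/em 410 nm) followed e.g. 120 min at 32° C.; IC50 at 50% signal.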

[4] = target: T4, mouse MMP-2 (Mus musculus, UniProt P33434); experiment: In vitro mouse MMP-2 inhibition test
T4 construct: purchased R&D Systems 924-MP
Description: as §1
as §2, with “mouse MMP-2” for “mouse MMP-9”, “Systems, 924-MP)” for “Systems, 909-MP)”, “example, 10” for “example, 5”, “the MMP-2” for “the MMP-9”

T1 sequence (P09238 99-476): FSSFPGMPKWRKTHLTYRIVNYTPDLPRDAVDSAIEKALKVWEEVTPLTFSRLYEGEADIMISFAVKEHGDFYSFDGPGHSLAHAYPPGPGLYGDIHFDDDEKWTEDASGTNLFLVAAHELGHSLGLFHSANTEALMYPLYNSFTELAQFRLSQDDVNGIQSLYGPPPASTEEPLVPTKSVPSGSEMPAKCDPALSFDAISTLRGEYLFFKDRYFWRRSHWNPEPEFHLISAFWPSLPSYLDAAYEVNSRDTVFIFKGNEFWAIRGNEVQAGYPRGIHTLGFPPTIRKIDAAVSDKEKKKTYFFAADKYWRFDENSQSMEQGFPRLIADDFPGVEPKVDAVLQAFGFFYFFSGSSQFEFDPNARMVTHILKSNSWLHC
T2 sequence (P41245 108-730): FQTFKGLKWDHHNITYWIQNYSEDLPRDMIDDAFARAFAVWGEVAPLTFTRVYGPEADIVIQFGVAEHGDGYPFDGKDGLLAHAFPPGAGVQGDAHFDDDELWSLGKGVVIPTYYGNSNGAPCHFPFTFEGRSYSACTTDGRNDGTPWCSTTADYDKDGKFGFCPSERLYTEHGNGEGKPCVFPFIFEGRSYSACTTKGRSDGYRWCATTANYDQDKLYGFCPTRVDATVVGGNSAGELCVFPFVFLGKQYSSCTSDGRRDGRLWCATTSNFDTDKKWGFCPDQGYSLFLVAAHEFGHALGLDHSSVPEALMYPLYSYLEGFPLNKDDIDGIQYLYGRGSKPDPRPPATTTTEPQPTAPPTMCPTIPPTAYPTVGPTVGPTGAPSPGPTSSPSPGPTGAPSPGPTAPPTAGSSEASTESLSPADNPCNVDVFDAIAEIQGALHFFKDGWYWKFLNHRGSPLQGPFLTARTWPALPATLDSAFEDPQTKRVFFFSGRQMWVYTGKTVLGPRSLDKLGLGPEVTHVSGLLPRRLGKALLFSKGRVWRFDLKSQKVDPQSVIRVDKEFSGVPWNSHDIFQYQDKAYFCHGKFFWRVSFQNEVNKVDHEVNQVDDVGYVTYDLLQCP
T4 sequence (P33434 110-662): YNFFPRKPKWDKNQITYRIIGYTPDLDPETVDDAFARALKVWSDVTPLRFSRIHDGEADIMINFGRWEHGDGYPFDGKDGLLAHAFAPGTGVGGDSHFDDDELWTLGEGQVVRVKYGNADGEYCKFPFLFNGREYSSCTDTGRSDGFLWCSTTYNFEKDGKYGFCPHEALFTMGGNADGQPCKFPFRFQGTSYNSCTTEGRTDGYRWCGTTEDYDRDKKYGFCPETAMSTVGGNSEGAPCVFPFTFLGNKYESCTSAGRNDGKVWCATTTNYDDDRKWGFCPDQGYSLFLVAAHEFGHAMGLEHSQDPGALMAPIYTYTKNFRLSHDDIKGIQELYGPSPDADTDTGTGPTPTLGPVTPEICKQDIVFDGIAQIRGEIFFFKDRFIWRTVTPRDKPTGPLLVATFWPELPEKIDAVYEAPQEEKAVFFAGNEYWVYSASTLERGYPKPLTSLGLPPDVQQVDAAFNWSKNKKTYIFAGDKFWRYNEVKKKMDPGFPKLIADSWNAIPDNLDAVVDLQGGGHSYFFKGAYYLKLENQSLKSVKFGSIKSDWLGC

`Cc1ccc2nnn(C[C@H]3CC[C@@H](C(=O)c4ccc(OCc5cccc(C(F)(F)F)c5)cc4)[C@@H]3C(=O)O)c(=O)c2c1` (single isomer, unassigned) [Example 101, (+)-(1RS,2SR,5RS)-2-[(6-Methyl-4-oxo-1,2,3-benzotriazin-3(4H)-yl)methyl]-5-(4-{[3-(trifluoromethyl)benzyl]oxy}benzoyl)cyclopentanecarboxylic acid] showed an IC50 [1] of 110 nM, an IC50 [2] of 400 nM and an IC50 [3] of 380 nM. It also gave an IC50 [4] of 490 nM.
Compound `Cc1ccc2nnn(C[C@H]3CC[C@@H](C(=O)c4ccc(OCc5cccc(Cl)c5)cc4)[C@@H]3C(=O)O)c(=O)c2c1` (single isomer, unassigned) [Example 104, (+)-(1RS,2RS,5SR)-2-{4-[(3-Chlorobenzyl)oxy]benzoyl}-5-[(6-methyl-4-oxo-1,2,3-benzotriazin-3(4H)-yl)methyl]cyclopentanecarboxylic acid] has an IC50 [1] of 50 nM, an IC50 [2] of 330 nM and an IC50 [3] of 220 nM. The IC50 [4] was 290 nM.
Compound `Cc1ccc2nnn(C[C@H]3CC[C@@H](C(=O)c4ccc(OCc5cccc(OC(F)(F)F)c5)cc4)[C@@H]3C(=O)O)c(=O)c2c1` (single isomer, unassigned) [Example 110, (+)-(1RS,2SR,5RS)-2-[(6-Methyl-4-oxo-1,2,3-benzotriazin-3(4H)-yl)methyl]-5-(4-{[3-(trifluoromethoxy)benzyl]oxy}benzoyl)cyclopentanecarboxylic acid] has an IC50 [1] of 130 nM, an IC50 [2] of 1100 nM and an IC50 [3] of 850 nM. It also gave an IC50 [4] of 1100 nM.
For `Cc1ccc2nnn(C[C@H]3CC[C@@H](C(=O)c4ccc(OCC5CCCCC5)cc4)[C@@H]3C(=O)O)c(=O)c2c1` (single isomer, unassigned) [Example 117, (+)-(1RS,2RS,5SR)-2-[4-(Cyclohexylmethoxy)benzoyl]-5-[(6-methyl-4-oxo-1,2,3-benzotriazin-3(4H)-yl)methyl]cyclopentanecarboxylic acid], the IC50 [1] was 26 nM, the IC50 [2] was 230 nM and the IC50 [3] was 97 nM. It also gave an IC50 [4] of 130 nM.
Work on `CCCCCCOc1ccc(C(=O)[C@@H]2CC[C@H](Cn3nnc4ccc(C)cc4c3=O)[C@H]2C(=O)O)cc1` (single isomer, unassigned) [Example 121, (+)-(1RS,2RS,5SR)-2-[4-(Hexyloxy)benzoyl]-5-[(6-methyl-4-oxo-1,2,3-benzotriazin-3(4H)-yl)methyl]cyclopentanecarboxylic acid] yielded an IC50 [1] of 93 nM, an IC50 [2] of 880 nM and an IC50 [3] of 280 nM. The IC50 [4] was 420 nM.
Compound `COC(=O)Nc1cccc(COc2ccc(C(=O)[C@@H]3CC[C@H](Cn4nnc5ccc(C(F)(F)F)cc5c4=O)[C@H]3C(=O)O)cc2)c1` (stereo in doubt) [Example 31, (+)-(1RS,2RS,5SR)-2-[4-({3-[(Methoxycarbonyl)amino]benzyl}oxy)benzoyl]-5-{[4-oxo-6-(trifluoromethyl)-1,2,3-benzotriazin-3(4H)-yl]methyl}cyclopentanecarboxylic acid] has an IC50 [1] of 41 nM, an IC50 [2] of 4300 nM and an IC50 [3] of 830 nM. For the same compound, the IC50 [4] was 990 nM.
Compound “(+)-(1RS,2RS,5SR)-2-{4-[(3,4-Dichlorobenzyl)oxy]benzoyl}-5-{[4-oxo-6-(trifluoromethyl)-1,2,3-benzotriazin-3(4H)-yl]methyl}cyclopentanecarboxylic acid [Example 28]” has an IC50 [1] of 130 nM, an IC50 [2] of 2500 nM and an IC50 [3] of 700 nM. It also gave an IC50 [4] of 1000 nM.
With “(+)-(1RS,2SR,5RS)-2-{[4-Oxo-6-(trifluoromethyl)-1,2,3-benzotriazin-3(4H)-yl]methyl}-5-{4-[(2-phenylethy)sulphanyl]benzoyl}cyclopentanecarboxylic acid [Example 83]” the IC50 [1] was 120 nM, the IC50 [2] was over 40000 nM and the IC50 [3] was 6700 nM. It also gave an IC50 [4] of 8100 nM.
